Source: patent US8097759B2, “Inflammatory cytokine release inhibitor” (Institute of Medicinal Molecular Design, Inc., priority 2000, dated 2012)
Where two headings read alike, the source gives them in different places.

Tested on: NF-κB activation
Assay: NF-κB activation reporter assay (pNFκB-Luc luciferase) under TNF-α stimulation
Format: cell-based, human
Details: for inhibition at 1 µg/mL / inhibition at 10 µg/mL: Homo sapiens, read-out: The rate of inhibitory activity against NF-κB activation (%)
Description: Using a transfection reagent (Effectene; QIAGEN), the human hepatoma cell strain HepG2 or the human hysterocarcinoma cell strain HeLa was transfected with the firefly luciferase gene (Luc) contained plasmid (pNF κB-Luc Reporter Plasmid; […]) which contained oligonucleotide having five tandem copies of NF-κB binding sequences ([…]) on a upstream region of Luc, according to the QUAGEN's protocol and it was incuvated for 6-24 hours. After addition of TNF-α (40 ng/ml) with or without the test compound, the cells were incuvated for 4 hours, and intracellular luciferase activity was measured with PicaGene LT (TOYO INK MFG Co., Ltd.) and chemical luminescence measurement device ([…]luor Plus; TECAN). The inhibition ratio was measured as a ratio to the value of the luciferase activity without the test compound.

[1] = Concentration of the agent: 1 μg/mL, HepG2 or HeLa cells, TNF-α 40 ng/ml, 4 hours
[2] = Concentration of the agent: 10 μg/mL, HepG2 or HeLa cells, TNF-α 40 ng/ml, 4 hours

Row | Compound | inhibition at 1 µg/mL [1] [%] | inhibition at 10 µg/mL [2] [%] | other results
1 | O=C(Nc1ccccc1)Nc1ccc(O)c(C(=O)Nc2cc(C(F)(F)F)cc(C(F)(F)F)c2)c1 [Compound 91] | 20.5 | 88.4 | 
2 | O=C(Nc1nc(C(F)(F)F)c(-c2ccccc2)s1)c1cc(Br)ccc1O [Compound 206] | 85.1 | 89.4 | 
3 | O=C(Nc1ccc(S(=O)(=O)F)cc1)c1cc(N=Nc2cc(Cl)ccc2Cl)c2ccccc2c1O [Compound 23, 4-({[4-(2,5-Dichlorophenyl)azo-1-hydroxynaphthalen-2-yl]-carbonyl}amino)benzenesulfonyl fluoride] |  |  | inhibition at 1 µg/mL (4 h): 75.7%; inhibition at 10 µg/mL (4 h): 96.6%
4 | COc1ccc(O)c(C(=O)Nc2cc(C(F)(F)F)cc(C(F)(F)F)c2)c1 [Compound 77] | 30.7 | 97 | 
5 | O=C(Nc1cccc(C(F)(F)F)c1)c1cc(Br)ccc1O [Compound 106] | 80.7 | 93.3 | 
6 | O=C(c1cc(Br)ccc1O)N1CCCc2ccc(C(F)(F)F)cc21 [Compound 17, 1-(5-Bromo-2-hydroxy)benzoyl-7-(trifluoromethyl)-1,2,3,4-tetrahydroquinoline] |  |  | The rate of inhibitory activity against NF-κB activation (%) [1]: 19.9%; The rate of inhibitory activity against NF-κB activation (%) [2]: 96.5%
7 | O=C(Nc1nc(-c2ccccc2)c(-c2ccccc2)s1)c1cc(Br)ccc1O [Compound 204] | -5.3 | 67 | 
8 | C[Si](C)(C)C#Cc1ccc(O)c(C(=O)Nc2cc(C(F)(F)F)cc(C(F)(F)F)c2)c1 [Compound 66] | 91.1 | 94.9 | 
9 | COc1cc(NC(=O)c2cc(Br)ccc2O)cc(C(F)(F)F)c1 [Compound 122] | 84.5 | 97.2 | 
10 | O=C(Nc1ccc(Cl)cc1)c1cc(Br)ccc1O [Compound 141] | 83.3 | 96.4 | 
11 | CC(=O)Nc1cc(O)c(C(=O)Nc2cc(C(F)(F)F)cc(C(F)(F)F)c2)cc1Cl [Compound 97] | 69.9 | 96 | 
12 | O=C(NN=Cc1ccc(O)cc1O)c1cc(Cl)ccc1O [Compound 15, 5-Chloro-2-hydroxybenzoic acid (2,4-dihydroxybenzylidene)hydrazide] | 15.2 | 70.4 | 
13 | O=C(Nc1ccnc(Cl)c1)c1cc(Cl)ccc1O [Compound 42, 5-Chloro-N-(2-chloropyridin-4-yl)-2-hydroxybenzamide] | 14.3 | 92.3 | 
14 | O=C(Nc1cc(C(F)(F)F)cc(C(F)(F)F)c1)c1ccc2ccccc2c1O [Compound 21, N-[3,5-Bis(trifluoromethyl)phenyl]-1-hydroxy-2-naphthamide] | 89.6 | 95 | 
15 | CC(=O)c1cccc(NC(=O)c2cc(Cl)ccc2O)c1 [Compound 169] | 14.5 | 88.1 | 
16 | O=C(Nc1cc(C(F)(F)F)ccc1Cl)c1cc(Cl)cnc1O [Compound 25, N-[2-Chloro-5-(trifluoromethyl)phenyl]-5-chloro-2-hydroxynicotinamide] | 85.4 | 86.9 | 
17 | O=C(NC1Cc2ccc(C(=O)N3CCOCC3)cc2C1)c1cc(Br)ccc1O (centres unmarked) [Compound 3, 5-Bromo-2-hydroxy-N-[5-(morpholinocarbonyl)indan-2-yl]benzamide] | 54.2 | 68.4 | 
18 | O=C(Nc1cc(C(F)(F)F)cc(C(F)(F)F)c1)c1cc(-c2ccccc2)ccc1O [Compound 67] | 91.8 | 96.8 | 
19 | 5-Bromo-2-hydroxy-N-(2-phenethyl)benzamide [Compound 2] |  |  | The rate of inhibitory activity against NF-κB activation (%) [1]: 18.6%; The rate of inhibitory activity against NF-κB activation (%) [2]: 83.2%
20 | CC(C)(C)c1cc(NC(=O)c2cc(Br)ccc2O)cc(C(C)(C)C)c1 [Compound 163] | 70.9 | 82 | 
21 | O=C(Nc1nc(-c2ccccc2)cs1)c1cc(Br)ccc1O [Compound 202] | -41.8 | 78.8 | 
22 | O=C(Nc1cccc2ccccc12)c1ccccc1O [Compound 31, 2-Hydroxy-N-(1-naphthyl)benzamide] | 13.3 | 93.2 | 
23 | O=C(Nc1c(F)c(F)c(F)c(F)c1F)c1cc(Cl)ccc1O [Compound 157] | 86.2 | 98.1 | 
24 | O=C(Nc1cc(C(F)(F)F)ccc1N1CCOCC1)c1cc(Br)ccc1O [Compound 127] | 81.8 | 86.4 | 
25 | O=C(Nc1ccc([N+](=O)[O-])c(C(F)(F)F)c1)c1cc(Cl)ccc1O [Compound 115] | 89 | 94.3 | 

Row | Compound | inhibition at 1 µg/mL [1] [%] | inhibition at 10 µg/mL [2] [%] | other results
26 | O=C(Nc1cc(C(F)(F)F)cc(C(F)(F)F)c1)c1cc(Cl)ccc1O [Compound 50] | 96.3 | 99.5 | 
27 | Oc1ccc(Br)cc1CNc1cc(Cl)cc(Cl)c1 [Compound 14, N-[(5-Bromo-2-hydroxyphenyl)methyl]-3,5-dichloroaniline] | 21.7 | 98.9 | 
28 | O=C(Nc1cc(C(F)(F)F)cc(C(F)(F)F)c1)c1cc([N+](=O)[O-])ccc1O [Compound 53] | 92 | 99.2 | 
29 | 5-Bromo-N-(3,5-dichloro)phenyl-2-hydroxybenzenesulfonamide [Compound 10] |  |  | The rate of inhibitory activity against NF-κB activation (%) [1]: 7.1%; The rate of inhibitory activity against NF-κB activation (%) [2]: 78.6%
30 | O=C(Nc1cc(C(F)(F)F)ccc1Cl)c1cc(Cl)ccc1O [Compound 113] | 94.8 | 97.1 | 
31 | O=C(NCc1cc(C(F)(F)F)cc(C(F)(F)F)c1)c1cc(Br)ccc1O [Compound 1, N-{[3,5-bis(trifluoromethyl)phenyl]methyl}-5-bromo-2-hydroxybenzamide] | -33.6 | 54.4 | 
32 | Cc1ccc(O)c(C(=O)Nc2cc(Cl)cc(Cl)c2)c1 [Compound 153] | 49.1 | 88.7 | 
33 | O=C(Nc1cc(Cl)c(Cl)c(Cl)c1)c1cc(Br)ccc1O [Compound 155] | 85.6 | 94.1 | 
34 | COc1ccc(CCC(=O)c2cc(Cl)ccc2O)cc1 [Compound 5, 1-(5-Chloro-2-hydroxyphenyl)-3-(4-methoxyphenyl)propan-1-one] | 33.3 | 98 | 
35 | CC(C)(C)c1nc(NC(=O)c2cc(Br)ccc2O)sc1C#N [Compound 184] | 20 | 93.8 | 
36 | Cc1cc(C)cc(NC(=O)c2cc(Br)ccc2O)c1 [Compound 161] | 86.3 | 92.6 | 
37 | O=C(Nc1cc(C(F)(F)F)cc(C(F)(F)F)c1)c1ccc(Cl)cc1O [Compound 98] | 90.5 | 98.2 | 
38 | O=C(Nc1cc(C(F)(F)F)cc(C(F)(F)F)c1)c1cc(C=Cc2ccccc2)ccc1O [Compound 63] | 95.5 | 96.9 | 
39 | O=C(Nc1cc(Cl)ccc1Cl)c1cc(Cl)ccc1O [Compound 142] | 95.1 | 96.9 | 
40 | O=C(Nc1cc(C(F)(F)F)cc(C(F)(F)F)c1)c1c(O)[nH]c2cc(Cl)ccc12 [Compound 28, N-[3,5-Bis(trifluoromethyl)phenyl]-6-chloro-2-hydroxyindole-3-carboxamide] | 16.3 | 41.7 | 
41 | O=C(Nc1ccc(O)c(C(=O)Nc2cc(C(F)(F)F)cc(C(F)(F)F)c2)c1)c1ccccc1 [Compound 90] | 1 | 63.4 | 
42 | COc1ccc(O)c(C(=O)Nc2cc(Cl)cc(Cl)c2)c1 [Compound 154] | -31 | 48.2 | 
43 | O=C(Nc1cc([N+](=O)[O-])cc([N+](=O)[O-])c1)c1cc(Br)ccc1O [Compound 158] | 91 | 95.6 | 
44 | Cc1nc(NC(=O)c2cc(Br)ccc2O)sc1C [Compound 187] | 4.6 | 67.2 | 
45 | O=C(CC(c1ccc(O)cc1)c1ccc(Cl)cc1)c1c(O)cccc1O (centres unmarked) [Compound 4, 3-(4-Chlorophenyl)-1-(2,6-dihydroxyphenyl)-3-(4-hydroxyphenyl)propan-1-one] | 42.9 | 94.1 | 
46 | O=C(Nc1ccc(S(=O)(=O)F)cc1)c1ccc2ccccc2c1O [Compound 22, {[(1-Hydroxynaphthalen-2-yl)carbonyl]amino}benzenesulfonyl fluoride] |  |  | The rate of inhibitory activity against NF-κB activation (%) [1]: 37.0%; The rate of inhibitory activity against NF-κB activation (%) [2]: 92.9%
47 | O=C(Nc1nc(C(F)(F)F)c(Br)s1)c1cc(Br)ccc1O [Compound 182] | 85.3 | 94.4 | 
48 | COCc1ccc(C(=O)C=Cc2ccc3c(c2)OCCCO3)c(O)c1 [Compound 8, 3-(3,4-Dihydro-2H benzo[b][1,4]dioxepin-7-yl)-1-[2-hydroxy-4-(methoxylmethyl)phenyl]propen-1-one] | 35.3 | 59.9 | 
49 | COc1ccc(-c2ccccc2)cc1NC(=O)c1cc(Cl)ccc1O [Compound 166] | 82.4 | 97.9 | 
